Test results published in patent EP0624588A1, “New quinoline derivatives with pharmacological activity” (J. URIACH & CIA. S.A., priority 1993, dated 1994).

How the values were obtained:
[1] = tested on: platelet aggregation induced by PAF; assay: Inhibition of platelet aggregation induced by PAF; assay type: cell-based, New Zealand albino rabbits; settings: Oryctolagus cuniculus; rabbit platelet rich plasma, PAF (C₁₈) 15 nM, Born nephelometric technique; read-out: IC₅₀
Description: Blood is obtained by cardiac puncture of male New Zealand albino rabbits (b.w. 2-2.5 Kg) and coagulation is prevented by adding 1 part of 3.16% sodium citrate dihydrate in 9 parts of blood. Platelet rich plasma (PRP) is prepared by centrifuging the blood at 250xg for 10 min. at 4°C and then it is diluted with platelet poor plasma (PPP) obtained by further centrifuging at 3000xg for 10 min. The platelet count is adjusted to 3x10⁵/mm³. Platelet aggregation induced by PAF (C₁₈, prepared in our laboratory) (15 nM) is determined by the Born nephelometric technique (J. Physiol., 1962, 162, 67) using an aggregometer Chrono-log 500. The activities of the inhibitors are expressed as the IC₅₀ value, that is to say the concentration of drug needed to inhibit platelet aggregation by 50%.

[2] = tested on: LTB₄ production by human granulocytes (HL-60 cells); assay: Inhibition of LTB4 production by human granulocytes; assay type: cell-based; settings: differentiated HL-60 cells stimulated by calcium ionophore A23187 (5 x 10⁻⁶M), LTB₄ by EIA, read-out: % inh. of LTB₄ production (at 5 µM)
Description: Human promyelocytes (HL-60 cells) are grown in a RPMI 1640 medium suplemented with 20% heat-inactivated fetal bovine serum, 50 U/mL penicillin and 50 µg/mL streptomycin under an atmosphere of 5% CO₂ at 37°C. Cells are exposed to 1.3% DMSO for 5 days in order to differentiate them into mature granulocytes and then are washed and resuspended in Dubelcco's phosphate-buffered saline at 10⁶ cells/mL. HL-60 (10⁶ cells/mL) are incubated for 15 min at 37°C in the presence or absence (vehicle only) of test compound. Cells are then stimulated by calcium ionophore A23187 (5 x 10⁻⁶M) for 15 min. LTB₄ secreted into the external medium is measured by EIA (enzymo immunoassay) using a commercially available LTB₄-EIA kit. Results are expressed as the percent inhibition of LTB₄ production as compared to controls.

Structure (SMILES) | IC50 [1] | inhibition at 5 µM [2]
Cc1nnc2n1-c1sc3c(c1C(c1ccccc1Cl)=NC2C)CCN(C(=O)c1cccc(OCc2ccc4ccccc4n2)c1)C3 (stereo not drawn) [Compound 1, 6-(2-Chlorophenyl)-1,4-dimethyl-9-[3-(2-quinolylmethoxy)benzoyl]-7,8,9,10-tetrahydro-4H-pyrido[4',3': 4,5]thieno[3,2-f] [1,2,4]triazolo[4,3-a] [1,4]diazepine] | 32 nM | 72%
Cc1nnc2n1-c1sc3c(c1C(c1ccccc1Cl)=NC2C)CCN(C(=O)Cc1ccc(OCc2ccc4ccccc4n2)cc1)C3 (stereo not drawn) [Compound 2, 6-(2-Chlorophenyl)-1,4-dimethyl-9-[4-(2-quinolylmethoxy)phenylacetyl]-7,8,9,10-tetrahydro-4H-pyrido[4',3': 4,5]thieno[3,2-f] [1,2,4]triazolo[4,3-a] [1,4]diazepine] | 16 nM | –
